In patent US12207654B2, “Bactericidal agent for agricultural or horticultural use, plant disease control method, and product for plant disease control use” (Kureha Corporation, priority 2019, dated 2025):
Where “and” joins values, the source holds several entries; their conditions need not be identical. Equal entries are not always repeated. Where two headings read alike, the source gives them in different places.

Experiments:
Cercospora beticola = test: In vitro antimicrobial activity test in 96-well microplate (absorbance at 620 nm); format: cell-based; conditions: used alone
[1] = test system: wheat leaf rust (Puccinia recondita); test: Controlling effect test against wheat leaf rust (foliar spray on potted wheat seedlings); format: in vivo; conditions: sprayed alone
Fusarium graminearum = test: microbe, parasite or virus in culture; format: cell-based
Penicillium italicum = test: In vitro antimicrobial activity test on PDA plate media (colony diameter); format: cell-based; conditions: for inhibition at 0.13 ppm: Penicillium italicum, read-out: Actual fungal growth inhibition rate (%)
Gaeumannomyces graminis = test: as above; format: cell-based; conditions: used alone
Glomerella cingulata = test: as above; format: cell-based; conditions: used alone
Microdocum nivale = test: as above; format: cell-based; conditions: used alone
[2] = test system: Alternaria alternata apple pathotype; test: as above; format: cell-based; conditions: used alone
Pyrenophora graminea = test: as above; format: cell-based; conditions: used alone
[3] = Fusarium graminearum, read-out: Actual fungal growth inhibition rate (%)
[4] = Gaeumannomyces graminis, 0.13 ppm, read-out: Actual fungal growth inhibition rate (%)

**Q.** How did the “Actual growth inhibition rate” value (Cercospora beticola; 0.04 ppm) turn out when `COc1ccnc(C(=O)N[C@H]2COC(=O)[C@H](Cc3ccccc3)[C@@H](OC(=O)C(C)C)[C@H](C)OC2=O)c1OCOC(=O)C(C)C` [Fenpicoxamid, fenpicoxamid] was run?
**A.** 28%

**Q.** What about the “Actual growth inhibition rate” value (Cercospora beticola; 0.2 ppm) of the same compound?
**A.** 59%

**Q.** What about the “Actual growth inhibition rate” value (Cercospora beticola; 1.0 ppm) of the same compound?
**A.** 60%

**Q.** And the “Actual growth inhibition rate” value (Cercospora beticola; 5.0 ppm)?
**A.** 100%

**Q.** How did the Actual controlling rate ([1]; 0.63 g/ha) turn out when `CON(C(=O)c1cn(C)nc1C(F)F)C(C)Cc1c(Cl)cc(Cl)cc1Cl` (stereo not shown) [Pydiflumetofen, pydiflumetofen, reference compound] was run?
**A.** 11%

**Q.** And the Actual controlling rate ([1]; 1.25 g/ha)?
**A.** 44%

**Q.** What about the Actual controlling rate ([1]; 2.5 g/ha) of the same compound?
**A.** 44%

**Q.** And the Actual controlling rate ([1]; 5 g/ha)?
**A.** 67%

**Q.** What about the Actual controlling rate ([1]; 10 g/ha) of the same compound?
**A.** 83%

**Q.** What does the source list for `CC(C)CC(C)c1sccc1NC(=O)c1cn(C)nc1C(F)(F)F` (stereo not shown) [Penthiopyrad, penthiopyrad]?
**A.** inhibition at 1.25 ppm (Fusarium graminearum; [3]): 7%; inhibition at 5 ppm (Fusarium graminearum; [3]): 22%; inhibition at 20 ppm (Fusarium graminearum; [3]): 28%

**Q.** How did the inhibition at 0.13 ppm (Penicillium italicum; used alone, 0.13 ppm) turn out when `OC(Cc1ccccc1Cl)(Cn1nc[nH]c1=S)C1(Cl)CC1` (stereo not shown) [Prothioconazole, prothioconazole, reference compound] was run?
**A.** 18%

**Q.** What about the inhibition at 0.13 ppm (Penicillium italicum; single chemical at 0.13 ppm) of the same compound?
**A.** 19%

**Q.** And the inhibition at 0.13 ppm (Gaeumannomyces graminis; [4])?
**A.** 0%

**Q.** And the inhibition at 0.5 ppm (Gaeumannomyces graminis; Gaeumannomyces graminis, 0.50 ppm, read-out: Actual fungal growth inhibition rate (%))?
**A.** 36%

**Q.** What about the inhibition at 0.01 ppm (Fusarium graminearum; [3]) of the same compound?
**A.** 1%

**Q.** And the inhibition at 0.03 ppm (Fusarium graminearum; [3])?
**A.** 19%

**Q.** And the inhibition at 0.01 ppm (Glomerella cingulata; Colletotrichum gloeosporioides, 0.01 ppm, read-out: Actual fungal growth inhibition rate (%))?
**A.** 0%

**Q.** And the inhibition at 0.03 ppm (Glomerella cingulata; Colletotrichum gloeosporioides, 0.03 ppm, read-out: Actual fungal growth inhibition rate (%))?
**A.** 1%

**Q.** What about the inhibition at 0.13 ppm (Glomerella cingulata; Colletotrichum gloeosporioides, 0.13 ppm, read-out: Actual fungal growth inhibition rate (%)) of the same compound?
**A.** 0%

**Q.** What about the inhibition at 0.5 ppm (Glomerella cingulata; Colletotrichum gloeosporioides, 0.50 ppm, read-out: Actual fungal growth inhibition rate (%)) of the same compound?
**A.** 24%

**Q.** What about the inhibition at 0.13 ppm (Microdocum nivale; 0.13 ppm, read-out: Actual fungal growth inhibition rate (%)) of the same compound?
**A.** 13%

**Q.** What about the inhibition at 0.13 ppm ([2]; Alternaria alternata, 0.13 ppm, read-out: Actual fungal growth inhibition rate (%)) of the same compound?
**A.** 48%

**Q.** And the inhibition at 0.5 ppm (Pyrenophora graminea; Pyrenophora graminea, 0.50 ppm, read-out: Actual fungal growth inhibition rate (%))?
**A.** 54%

**Q.** With `COC(=O)C(O)(Cn1cncn1)c1ccc(Oc2ccc(Cl)cc2)cc1C(F)(F)F` (stereo not shown) [Azole derivative I-122] as the compound, how does the “Actual fungal growth inhibition rate (%)” value (Gaeumannomyces graminis; 0.01 ppm) read?
**A.** 0%

**Q.** And the “Actual fungal growth inhibition rate (%)” value (Gaeumannomyces graminis; 0.03 ppm)?
**A.** 32%

**Q.** And the “Actual fungal growth inhibition rate (%)” value (Gaeumannomyces graminis; 0.13 ppm)?
**A.** 70% and 57%

**Q.** What about the “Actual fungal growth inhibition rate (%)” value (Gaeumannomyces graminis; 0.31 ppm) of the same compound?
**A.** 96%

**Q.** What about the “Actual fungal growth inhibition rate (%)” value (Gaeumannomyces graminis; 0.50 ppm) of the same compound?
**A.** 97%

**Q.** And the “Actual fungal growth inhibition rate (%)” value (Gaeumannomyces graminis; 1.25 ppm)?
**A.** 96%

**Q.** What about the “Actual fungal growth inhibition rate (%)” value (Fusarium graminearum) of the same compound?
**A.** 83%

**Q.** What about the “Actual fungal growth inhibition rate (%)” value (Glomerella cingulata; 0.01 ppm) of the same compound?
**A.** 8%

**Q.** What about the “Actual fungal growth inhibition rate (%)” value (Glomerella cingulata; 0.03 ppm) of the same compound?
**A.** 14%

**Q.** And the “Actual fungal growth inhibition rate (%)” value (Glomerella cingulata; 0.13 ppm)?
**A.** 45%

**Q.** What about the “Actual fungal growth inhibition rate (%)” value (Glomerella cingulata; 0.50 ppm) of the same compound?
**A.** 82%

**Q.** And the “Actual fungal growth inhibition rate (%)” value (Microdocum nivale; 0.01 ppm)?
**A.** 0%

**Q.** And the “Actual fungal growth inhibition rate (%)” value (Microdocum nivale; 0.03 ppm)?
**A.** 0%

**Q.** And the “Actual fungal growth inhibition rate (%)” value (Microdocum nivale; 0.13 ppm)?
**A.** 4%

**Q.** And the “Actual fungal growth inhibition rate (%)” value ([2]; 0.13 ppm)?
**A.** 0%

**Q.** What about the “Actual fungal growth inhibition rate (%)” value ([2]; 0.50 ppm) of the same compound?
**A.** 5%

**Q.** And the “Actual fungal growth inhibition rate (%)” value (Pyrenophora graminea; 0.13 ppm)?
**A.** 75%

**Q.** And the “Actual fungal growth inhibition rate (%)” value (Pyrenophora graminea; 0.50 ppm)?
**A.** 82%

**Q.** Which “Actual fungal growth inhibition rate (%)” value (Penicillium italicum; used alone, 0.01 ppm) does the source give for `COC(=O)C(O)(Cn1cncn1)c1ccc(Oc2ccc(C(F)(F)F)cc2)cc1Cl` (stereo not shown) [Azole derivative I-23] here?
**A.** 6%

**Q.** And the “Actual fungal growth inhibition rate (%)” value (Penicillium italicum; used alone, 0.03 ppm)?
**A.** 12%

**Q.** And the “Actual fungal growth inhibition rate (%)” value (Penicillium italicum; used alone, 0.13 ppm)?
**A.** 35%

**Q.** What about the “Actual fungal growth inhibition rate (%)” value (Penicillium italicum; used alone, 0.50 ppm) of the same compound?
**A.** 52% and 43%

**Q.** What about the “Actual fungal growth inhibition rate (%)” value (Gaeumannomyces graminis; 0.01 ppm) of the same compound?
**A.** 0%

**Q.** What about the “Actual fungal growth inhibition rate (%)” value (Gaeumannomyces graminis; 0.03 ppm) of the same compound?
**A.** 38%

**Q.** What about the “Actual fungal growth inhibition rate (%)” value (Gaeumannomyces graminis; 0.08 ppm) of the same compound?
**A.** 92%

**Q.** What about the “Actual fungal growth inhibition rate (%)” value (Gaeumannomyces graminis; 5.00 ppm) of the same compound?
**A.** 94%

**Q.** What about the “Actual fungal growth inhibition rate (%)” value (Fusarium graminearum) of the same compound?
**A.** 79%

**Q.** What about the “Actual fungal growth inhibition rate (%)” value (Glomerella cingulata; 0.03 ppm) of the same compound?
**A.** 9%

**Q.** What about the “Actual fungal growth inhibition rate (%)” value (Glomerella cingulata; 0.13 ppm) of the same compound?
**A.** 31%

**Q.** What about the “Actual fungal growth inhibition rate (%)” value (Glomerella cingulata; 0.50 ppm) of the same compound?
**A.** 61%

**Q.** And the “Actual fungal growth inhibition rate (%)” value (Microdocum nivale; 0.01 ppm)?
**A.** 0%

**Q.** What about the “Actual fungal growth inhibition rate (%)” value (Microdocum nivale; 0.13 ppm) of the same compound?
**A.** 4% and 10%

**Q.** What about the “Actual fungal growth inhibition rate (%)” value (Microdocum nivale; 0.50 ppm) of the same compound?
**A.** 27% and 24%

**Q.** And the “Actual fungal growth inhibition rate (%)” value ([2]; 0.03 ppm)?
**A.** 0%

**Q.** What about the “Actual fungal growth inhibition rate (%)” value ([2]; 0.13 ppm) of the same compound?
**A.** 0%

**Q.** And the “Actual fungal growth inhibition rate (%)” value (Pyrenophora graminea; 0.08 ppm)?
**A.** 73%

**Q.** And the “Actual fungal growth inhibition rate (%)” value (Pyrenophora graminea; 0.13 ppm)?
**A.** 81%

**Q.** And the “Actual fungal growth inhibition rate (%)” value (Pyrenophora graminea; 0.31 ppm)?
**A.** 92%

**Q.** And the “Actual fungal growth inhibition rate (%)” value (Pyrenophora graminea; 0.50 ppm)?
**A.** 91%

**Q.** What about the “Actual fungal growth inhibition rate (%)” value (Pyrenophora graminea; 1.25 ppm) of the same compound?
**A.** 95%

**Q.** `CO/C=C(/C(=O)OC)c1ccccc1Oc1cc(Oc2ccccc2C#N)ncn1` [Azoxystrobin, azoxystrobin, reference compound] was tested. Which Actual controlling rate ([1]; 1.25 g/ha) did it give?
**A.** 47%

**Q.** `CCCN(CC)CC1COC2(CCC(C(C)(C)C)CC2)O1` (stereo not shown) [Spiroxamine, spiroxamine, reference compound] was tested. Which inhibition at 0.002 ppm (Gaeumannomyces graminis; Gaeumannomyces graminis, 0.002 ppm, read-out: Actual fungal growth inhibition rate (%)) did it give?
**A.** 0%

**Q.** And the inhibition at 0.13 ppm (Gaeumannomyces graminis; [4])?
**A.** 0%

**Q.** And the inhibition at 0.01 ppm (Pyrenophora graminea; Pyrenophora graminea, 0.01 ppm, read-out: Actual fungal growth inhibition rate (%))?
**A.** 0%

**Q.** What about the inhibition at 0.03 ppm (Pyrenophora graminea; Pyrenophora graminea, 0.03 ppm, read-out: Actual fungal growth inhibition rate (%)) of the same compound?
**A.** 0%
